Test results published in patent US11739074B2, “Ras inhibitors” (Revolution Medicines, Inc., priority 2019, dated 2023).

Columns and labels:
Assay type in all cases: cell-based
AsPC-1 (K-Ras G12D) [1] = experiment: Potency assay: pERK in AsPC-1 cells; details: Homo sapiens, ASPC1; AsPC-1 cells, K-Ras G12D; read-out: pERK EC50 (AsPC-1 KRAS G12D)
NCI-H358 (K-Ras G12C) = experiment: CellTiter-Glo cell viability assay, H358; details: Homo sapiens, NCI-H358, 120 h, NCI-H358, K-Ras G12C, 5-day treatment; read-out: H358 Cell Viability IC50
Protocol: Determination of Cell Viability in RAS Mutant Cancer Cell Lines
Protocol: CellTiter-Glo® Cell Viability Assay
Note—The following protocol describes a procedure for monitoring cell viability of K-Ras mutant cancer cell lines in response to a compound of the invention. Other RAS isoforms may be employed, though the number of cells to be seeded will vary based on cell line used.
Test compounds (132.5 nL) were directly dispensed into the assay plates containing cells. […] On day 5, assay plates and their contents were equilibrated to room temperature for approximately 30 minutes. […] Luminescence was measured using the PerkinElmer Enspire. Data were normalized by the following: (Sample signal/Avg. DMSO)*100. The data were fit using a four-parameter logistic fit.

AsPC-1 (K-Ras G12D) [2] = experiment: CellTiter-Glo cell viability assay, AsPC-1; details: Homo sapiens, ASPC1, 120 h, AsPC-1, K-Ras G12D, 5-day treatment; read-out: AsPC-1 Cell Viability IC50
In short: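 Percent-of-DMSO luminescence values (CellTiter-Glo, day 5, plates equilibrated ~30 minutes at ambient temperature) were curve-fitted using a 4-parameter logistic equation; compounds had been added straight into wells containing the cells.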

| Compound | EC50 (AsPC-1 (K-Ras G12D) [1]) | IC50 (NCI-H358 (K-Ras G12C)) | IC50 (AsPC-1 (K-Ras G12D) [2]) |
| --- | --- | --- | --- |
| CCn1c(-c2cccnc2[C@H](C)OC)c2c3cc(ccc31)-c1cc(O)cc(c1)C[C@H](NC(=O)[C@H](C(C)C)N(C)C(=O)C13CCC(CC1)N3C(=O)[C@H]1CN1)C(=O)N1CCC[C@H](N1)C(=O)OCC(C)(C)C2 [Compound 202] | < 5 µM | 100 to 1000 nM | 1000 to 10000 nM |
| CCn1c(-c2cccnc2[C@H](C)OC)c2c3cc(ccc31)-c1cc(O)cc(c1)C[C@H](NC(=O)[C@H](C(C)C)N(C)C(=O)[C@@H]1CCN(C(=O)[C@H]3CN3)[C@@H]1C)C(=O)N1CCC[C@H](N1)C(=O)OCC(C)(C)C2 [Compound 207] | < 5 µM | < 10 nM | 100 to 1000 nM |
| CCn1c(-c2cccnc2[C@H](C)OC)c2c3cc(ccc31)-c1cc(O)cc(c1)C[C@H](NC(=O)[C@H](C(C)C)N(C)C(=O)[C@@H]1CCN(C(=O)[C@@H]3CN3)[C@@H]1C)C(=O)N1CCC[C@H](N1)C(=O)OCC(C)(C)C2 [Compound 208] | < 5 µM | 10 to 100 nM | 1000 to 10000 nM |
| CCn1c(-c2cccnc2[C@H](C)OC)c2c3cc(ccc31)-c1csc(n1)C[C@H](NC(=O)[C@H](C1CCCC1)N(C)C(=O)CN(C)C(=O)[C@@H]1N[C@@H]1C1CC1)C(=O)N1CCC[C@H](N1)C(=O)OCC(C)(C)C2 [Compound 210] | < 5 µM | 100 to 1000 nM | 100 to 1000 nM |
| CCn1c(-c2cccnc2[C@H](C)OC)c2c3cc(ccc31)-c1csc(n1)C[C@H](NC(=O)[C@H](C(C)C)N(C)C(=O)N(C)CCN(C)C(=O)[C@H]1CN1)C(=O)N1CCC[C@H](N1)C(=O)OCC(C)(C)C2 [Compound 216] | < 5 µM | 10 to 100 nM | 100 to 1000 nM |
| CCn1c(-c2cccnc2[C@H](C)OC)c2c3cc(ccc31)-c1csc(n1)C[C@H](NC(=O)[C@H](C(C)C)N(C)C(=O)N(C)CCN(C)C(=O)[C@@H]1CN1)C(=O)N1CCC[C@H](N1)C(=O)OCC(C)(C)C2 [Compound 217] | < 5 µM | 10 to 100 nM | 100 to 1000 nM |
| CCn1c(-c2cccnc2[C@H](C)OC)c2c3cc(ccc31)-c1csc(n1)C[C@H](NC(=O)[C@H](C(C)C)N(C)C(=O)N1CCCN(C(=O)[C@H]3CN3)CC1)C(=O)N1CCC[C@H](N1)C(=O)OCC(C)(C)C2 [Compound 222] | < 5 µM | < 10 nM | 100 to 1000 nM |
| CCn1c(-c2cccnc2[C@H](C)OC)c2c3cc(ccc31)-c1csc(n1)C[C@H](NC(=O)[C@H](C(C)C)N(C)C(=O)N1CCCN(C(=O)[C@@H]3CN3)CC1)C(=O)N1CCC[C@H](N1)C(=O)OCC(C)(C)C2 [Compound 223] | < 5 µM | 10 to 100 nM | 100 to 1000 nM |
| CCn1c(-c2cccnc2[C@H](C)OC)c2c3cc(ccc31)-c1csc(n1)C[C@H](NC(=O)[C@H](C(C)C)N(C)C(=O)N1CC(CN(C)C(=O)[C@H]3CN3)C1)C(=O)N1CCC[C@H](N1)C(=O)OCC(C)(C)C2 [Compound 224] | < 5 µM | 10 to 100 nM | 100 to 1000 nM |
| CCn1c(-c2cccnc2[C@H](C)OC)c2c3cc(ccc31)-c1csc(n1)C[C@H](NC(=O)[C@H](C(C)C)N(C)C(=O)N1CC(CN(C)C(=O)[C@@H]3CN3)C1)C(=O)N1CCC[C@H](N1)C(=O)OCC(C)(C)C2 [Compound 225] | < 5 µM | 10 to 100 nM | 100 to 1000 nM |
| CCn1c(-c2cccnc2[C@H](C)OC)c2c3cc(ccc31)-c1csc(n1)C[C@H](NC(=O)[C@H](C(C)C)N(C)C(=O)N1CC[C@@H](N(C)C(=O)[C@H]3CN3)C1)C(=O)N1CCC[C@H](N1)C(=O)OCC(C)(C)C2 [Compound 226] | < 5 µM | 10 to 100 nM | 1000 to 10000 nM |
| CCn1c(-c2cccnc2[C@H](C)OC)c2c3cc(ccc31)-c1csc(n1)C[C@H](NC(=O)[C@H](C(C)C)N(C)C(=O)N1CC[C@@H](N(C)C(=O)[C@@H]3CN3)C1)C(=O)N1CCC[C@H](N1)C(=O)OCC(C)(C)C2 [Compound 227] | < 5 µM | 10 to 100 nM | 1000 to 10000 nM |
| CCn1c(-c2cccnc2[C@H](C)OC)c2c3cc(ccc31)-c1csc(n1)C[C@H](NC(=O)[C@H](C(C)C)N(C)C(=O)N1CC[C@H](N(C)C(=O)[C@H]3CN3)C1)C(=O)N1CCC[C@H](N1)C(=O)OCC(C)(C)C2 [Compound 228] | < 5 µM | 10 to 100 nM | 100 to 1000 nM |
| CCn1c(-c2cc(C3CCN(C)CC3)cnc2[C@H](C)OC)c2c3cc(ccc31)-c1cc(O)cc(c1)C[C@H](NC(=O)[C@H](C1CCCC1)N(C)C(=O)CN(C)C(=O)[C@H]1CN1)C(=O)N1CCC[C@H](N1)C(=O)OCC(C)(C)C2 [Compound 230] | < 5 µM | 10 to 100 nM | 10 to 100 nM |
